Measurements taken from paper PMC7641325, “Fragment-based discovery of a new class of inhibitors targeting mycobacterial tRNA modification” (Nucleic Acids Research, 2020).
Converted amounts (≈) assume the structure as drawn. Read-outs that look alike come from different tables or passages of the source.

How the values were obtained:
M. abscessus TrmD [1] = biological target: T1, M. abscessus TrmD (Mycobacteroides abscessus, UniProt B1MDI3); assay: biochemical; type: binding; details: for LE (ligand efficiency): from M. abscessus TrmD Kd; for fold improvement in affinity (decrease in Kd) over the parent compound: AW3 vs AW2, AW4 vs AW3, AW5 vs AW4
T1 sequence (B1MDI3 entry or part of it): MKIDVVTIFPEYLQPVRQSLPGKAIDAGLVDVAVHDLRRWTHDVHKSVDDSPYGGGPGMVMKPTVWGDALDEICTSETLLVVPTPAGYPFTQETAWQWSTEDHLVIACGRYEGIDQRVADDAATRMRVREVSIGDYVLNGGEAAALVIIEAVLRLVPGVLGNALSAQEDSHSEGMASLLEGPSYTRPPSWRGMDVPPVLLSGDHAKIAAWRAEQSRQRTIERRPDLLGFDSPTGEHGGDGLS

M. abscessus TrmD [2] = biological target: T1, M. abscessus TrmD; assay: TrmD methylation (methyltransferase) inhibition assay, UPLC readout; type: biochemical; details: for IC50: 6.25 μM SAM, 0.1 μM TrmD, 6.25 μM tRNA ProUGG, 1 h room temperature
Experimental: Assays for quantifying TrmD methylation reactions were carried out in 20 μl reactions consisting of 6.25 μM SAM, 0.1 μM TrmD and 6.25 μM tRNA^ProUGG in the presence of 0–500 μM compounds in serial dilutions using assay buffer containing 50 mM Tris–HCl pH 7.5, 10 mM MgCl2, 24 mM NH4Cl, 5% DMSO and 1 mM DTT in nuclease free water. tRNA sequences were identified from the M. abscessus genome sequence using tRNAscan-SE algorithm, ([38],[39]). […]. The reactions were carried out for 1 h at room temperature followed by addition of 20 mM EDTA to stop the reactions. Each of the 20 μl samples were diluted ten-fold with the UPLC mobile phase solvent A (0.1% formic acid in water), centrifuged for 10 min at 13 000 g, to remove any precipitates, and the supernatant was aliquoted into 96-well plates. 40 μl samples were then injected into Acquity UPLC (Waters) T3 […] column and eluted using a gradient elution consisting of Mobile Phase A: 0.1% formic acid in water and mobile phase B: 0.1% formic acid in 100% methanol for 4 min. The absorbance was monitored using a photodiode array (PDA) detector (Waters) at wavelength range of ƛ: 220–500 nm. All reactions were carried out in triplicate. The blank corrected data were analyzed using Microsoft excel and non-linear regression analysis for IC50 determination were done using GraphPad prism version 7.00, GraphPad Software, La Jolla, CA, USA.

M. abscessus = assay: MIC measurement, M. abscessus; type: cell-based, Mycobacterium abscessus ssp. abscessus (ATCC 19977); details: Mycobacteroides abscessus, ATCC19977; ATCC 19977, Middlebrook 7H9 ADC, 37°C; read-out: Minimum inhibitory concentration (MIC) M. abscessus
M. tuberculosis H37Rv = assay: MIC measurement, M. tuberculosis; type: cell-based; details: Mycobacterium tuberculosis, 336 h, 7H9 base with DPPC, 2 weeks, 37°C, read-out: Minimum inhibitory concentration (MIC) M. tuberculosis
M. tuberculosis TrmD = M. tuberculosis TrmD (Mycobacterium tuberculosis, UniProt P9WFY7); assay: Isothermal titration calorimetry (ITC) with M. tuberculosis TrmD; type: binding
Chain of M. tuberculosis TrmD (P9WFY7 whole entry): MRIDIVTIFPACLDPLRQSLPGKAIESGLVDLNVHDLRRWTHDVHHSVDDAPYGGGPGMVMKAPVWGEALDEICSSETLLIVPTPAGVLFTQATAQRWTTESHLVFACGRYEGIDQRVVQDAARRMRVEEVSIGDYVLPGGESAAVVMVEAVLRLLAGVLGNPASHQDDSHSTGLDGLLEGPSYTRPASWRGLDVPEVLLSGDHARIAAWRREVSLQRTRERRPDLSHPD
Experimental: ITC experiments to quantify binding of ligands to TrmD were done as described in ([37]) using Malvern MicroCal iTC200 or Auto-iTC200 systems at 25°C. Titrations consisted of an initial injection (0.2 μl), discarded during data processing, followed by either 19 (2 μl) or 39 (1 μl) injections separated by intervals of 60–150 s duration. Protein was dialysed overnight at 4°C in storage buffer (M. abscessus TrmD: 50 mM HEPES pH 7.5, 500 mM NaCl, 5% glycerol; M. tuberculosis TrmD: 25 mM HEPES pH 7.5, 500 mM NaCl). Sample cell and syringe solutions were prepared using the same storage buffer, with a final DMSO concentration of 2–10% according to ligand solubility in the buffer. TrmD concentrations of either 33 or 100 μM were used, with ligand to protein concentration ratios ranging from 10 to 20:1. Control titrations without protein were also performed and subtracted from ligand to protein titrations. Titrations were fitted with Origin software (OriginLab, Northampton, MA, USA), using a one-site binding model with N fixed to 1 only for weakly binding ligands. Titrations were typically performed once (n = 1), with multiple isotherms obtained (n > 1) for key compounds of interest. Kd values are reported to two significant figures. Error provided by Origin software due to model fit is reported when n = 1, whereas standard deviation is reported when n > 1.

M. chelonae = assay: MIC measurement, M. chelonae; type: cell-based; details: Mycobacteroides chelonae; clinical isolate; read-out: Minimum inhibitory concentration (MIC) M. chelonae
M. fortuitum = assay: MIC measurement, M. fortuitum; type: cell-based; details: Mycolicibacterium fortuitum; clinical isolate; read-out: Minimum inhibitory concentration (MIC) M. fortuitum
M. gordonae = assay: MIC measurement, M. gordonae; type: cell-based; details: Mycobacterium gordonae; clinical isolate; read-out: Minimum inhibitory concentration (MIC) M. gordonae
M. terrae = assay: MIC measurement, M. terrae; type: cell-based; details: Mycolicibacter terrae; clinical isolate; read-out: Minimum inhibitory concentration (MIC) M. terrae
M. avium = assay: MIC measurement, M. avium; type: cell-based; details: Mycobacterium avium; clinical isolate; read-out: Minimum inhibitory concentration (MIC) M. avium
human macrophages = assay: LDH release cytotoxicity assay; type: cell-based; details: at or below a concentration of 150 μM
Text: Blood samples were donated by healthy volunteers who had undertaken informed consent in accordance with local Research Ethics Committee approval. Peripheral blood mononuclear cells were isolated from citrated peripheral blood samples by density gradient separation using Lympholyte (Cedarlane Labs), and subsequent CD14^+ positive selection using the MACS Miltenyi Biotec Human CD14 microbead protocol (Miltenyi Biotec). CD14^+ cells were differentiated into macrophages using recombinant human granulocyte-macrophage colony-stimulating factor (200 ng/ml GM-CSF) and recombinant human interferon gamma (50 ng/ml IFNγ) (Peprotech) in standard tissue culture DMEM media containing fetal calf serum, penicillin and streptomycin. […] At the given time points, supernatant was saved for cell cytotoxicity studies, and M. abscessus survival within the macrophages calculated by macrophage lysis in sterile water, and colony forming unit calculation on Columbia Blood Agar plates (VWR BDH).
Lactate dehydrogenase (LDH) was measured as a biomarker for cellular cytotoxicity using the Pierce LDH Cytotoxicity Assay Kit. Cell supernatant was measured at 2, 24 and 48 h post-infection according to the kit protocol.

[3] = tested on: M. abscessus-infected human macrophages; assay: Macrophage infection study (CFU of intracellular M. abscessus); type: cell-based, Mycobacterium abscessus; details: 25 μM compound, 48 h incubation
Text: Blood samples were donated by healthy volunteers who had undertaken informed consent in accordance with local Research Ethics Committee approval. Peripheral blood mononuclear cells were isolated from citrated peripheral blood samples by density gradient separation using Lympholyte (Cedarlane Labs), and subsequent CD14^+ positive selection using the MACS Miltenyi Biotec Human CD14 microbead protocol (Miltenyi Biotec). CD14^+ cells were differentiated into macrophages using recombinant human granulocyte-macrophage colony-stimulating factor (200 ng/ml GM-CSF) and recombinant human interferon gamma (50 ng/ml IFNγ) (Peprotech) in standard tissue culture DMEM media containing fetal calf serum, penicillin and streptomycin. Following removal of antibiotics, macrophages were infected at a multiplicity of infection of 10:1 with M. abscessus 19977 for 2 h, washed in sterile phosphate buffered saline, and then incubated in DMEM media with FCS and 25 μM of compound for 24 and 48 h. At the given time points, supernatant was saved for cell cytotoxicity studies, and M. abscessus survival within the macrophages calculated by macrophage lysis in sterile water, and colony forming unit calculation on Columbia Blood Agar plates (VWR BDH).

[4] = tested on: M. leprae maintained intracellularly in murine bone marrow macrophage; assay: Intracellular M. leprae in murine bone marrow macrophages, radiorespirometry; type: cell-based; details: Mycobacterium leprae, 168 h, AW7 at 6.2 μM, 7 days, read-out: inhibition of β-oxidation (14C-palmitic acid oxidation, radiorespirometry)
Experimental: Bone marrow cells were obtained aseptically from both femurs of female BALB/c mice and cultured on plastic cover slips in Dulbecco modified Eagle's medium (DMEM, Life Technologies, USA) supplemented with 10% (v/v) fetal calf serum (Life Technologies), 25 mM/l HEPES (Sigma, USA), 2 mM/l glutamine (Sigma, USA), 50 μg/ml ampicillin (Sigma, USA) and 10 ng/ml of recombinant murine macrophages colony stimulating factor (R&D Systems, USA) for 6–7 days at 37°C and 5% CO2. The cells were infected with freshly harvested nude mice foot pad derived live M. leprae at a multiplicity of infection (MOI) of 20:1 overnight at 33°C and then washed to remove extracellular bacteria. AW7 was added at different concentrations (100–6.25 μM) and the cells were incubated for 7 days at 33°C. Media only and rifampicin at 2.4 μM were used as negative and positive controls. […]
Metabolism of a suspension of M. leprae was measured by evaluating the oxidation of ^14C-palmitic acid to ^14CO2 by radiorespirometry as described previously ([45]). […] In the present study the seventh day cumulative counts per minute (CPM) were recorded and percentage inhibition of metabolism determined as compared to no drug control. Statistical significance between treatment groups and no drug control were determined by Student's t-test and P < 0.05 is considered as significant.

[5] = tested on: axenically-maintained M. leprae; assay: M. leprae axenic culture, radiorespirometry; type: cell-based, Mycobacterium leprae; details: 100-6.25 μM, 7 days, 33°C
Experimental: Freshly harvested nude mouse foot pad derived M. leprae were suspended in modified 7H12 medium, AW7 was added at different concentrations (100–6.25 μM) and were incubated for 7 days at 33°C. Media only and rifampin (Sigma, USA) at 2.4 μM were used as negative and positive controls. Following incubation aliquots of AW7 treated and control M. leprae were processed for radiorespirometry (RR) as described previously ([43]).
Metabolism of a suspension of M. leprae was measured by evaluating the oxidation of ^14C-palmitic acid to ^14CO2 by radiorespirometry as described previously ([45]). Levels of captured ^14CO2 is proportional to the rate of ^14C-palmitic acid oxidation and used as an indicator of M. leprae viability. In the present study the seventh day cumulative counts per minute (CPM) were recorded and percentage inhibition of metabolism determined as compared to no drug control. Statistical significance between treatment groups and no drug control were determined by Student's t-test and P < 0.05 is considered as significant.

M. abscessus TrmD [6] = biological target: T1, M. abscessus TrmD; assay: CRISPR-dCas9 knockdown of trmD in M. abscessus (target engagement); details: 25 μM AW7, doxycycline 1.5625-100 ng/ml, 72 h; effect not seen with yidC gRNA or empty vector
Text: The dCas9 encoding plasmid (pTetInt-dcas9-Km) and the second vector containing the sgRNA cassette (pGRNAz) were derived from the tetracycline inducible CRISPr Interference system of Choudhary et al. ([40]) and optimized for M. abscessus ATCC19977. The 20 nucleotides guides targeting yidC(MAB_4953c) and trmD(MAB_3226c) were annealed and cloned in between sphI and aclI of the pGRNAz. As a control the pGRNAz was left empty. The CRISPr-I containing strains were cultivated in Middlebrook 7H9 broth supplemented with 1× ADC, 0.05% tween80 and 0.5% glycerol, hygromycin 1 mg/ml and zeocin 300 μg/ml. The cultures were inoculated at 10^6CFU/ml from an exponentially grown pre-cultures. […] The OD600 was measured and the CFU counted at 72 h.

[7] = ITC, 25°C, M. abscessus TrmD, read-out: Kd

SMILES | Kd (M. abscessus TrmD [1]; [7]) | LE (ligand efficiency) (M. abscessus TrmD [1]) | IC50 (M. abscessus TrmD [2]) | fold improvement in affinity (decrease in Kd) over the parent compound (M. abscessus TrmD [1]) | MIC (M. abscessus) | MIC (M. tuberculosis H37Rv) | also measured
Nc1cc(-c2ccc3cc[nH]c3c2)[nH]n1 [AW1] | 110000 ± 11000 nM | 0.36 kcal/ mol/ heavy atom | 230000 ± 29000 nM |  |  |  | 
Nc1cc(-c2ccc3ccn(Cc4ccccn4)c3c2)[nH]n1 [AW2] | 12000 ± 1000 nM | 0.30 kcal/ mol/ heavy atom | 33000 ± 4000 nM |  |  |  | 
N#Cc1c(N)n[nH]c1-c1ccc2ccn(Cc3ccccn3)c2c1 [AW3] | 500 ± 140 nM | 0.36 kcal/ mol/ heavy atom | 310 ± 10 nM | 25 fold |  |  | fold decrease in IC50 over the parent compound (M. abscessus TrmD [2]; AW3 vs AW2): 100 fold
N#Cc1c(N)n[nH]c1-c1ccc2ccn(Cc3ccc(CN4CCCC4)cn3)c2c1 [AW4] | 92 ± 18 nM | 0.32 kcal/ mol/ heavy atom |  | 5 fold |  |  | 
N#Cc1c(N)n[nH]c1-c1ccc2ccn(Cc3ccc(CN4CCCC4)cc3)c2c1 [AW5] | 27 ± 4 nM | 0.34 kcal/ mol/ heavy atom | 30 ± 3 nM | > 3 fold | 50 µM (≈ 19.8 µg/mL) | 12.5 µM (≈ 4.96 µg/mL) | 
Nc1cc(-c2ccc3ccn(Cc4ccc(CN5CCCC5)cc4)c3c2)[nH]n1 [AW6] |  | 0.31 kcal/ mol/ heavy atom | 1400 ± 100 nM |  | 50 µM (≈ 18.6 µg/mL) | 6.3 µM (≈ 2.34 µg/mL) | Kd (M. abscessus TrmD [1]): 490 ± 210 nM; Kd (M. tuberculosis TrmD): 900 nM; MIC (M. chelonae): 100 µM (≈ 37.1 µg/mL); MIC (M. fortuitum): 100 µM (≈ 37.1 µg/mL); MIC (M. gordonae): 100 µM (≈ 37.1 µg/mL); MIC (M. terrae): 100 µM (≈ 37.1 µg/mL); MIC (M. avium): 200 µM (≈ 74.3 µg/mL); cellular toxicity (LDH release) (human macrophages): neither compound caused cellular toxicity; decrease in CFUs compared to the no drug control [3]: ~82%
CN1CCN(Cc2ccc(Cn3ccc4ccc(-c5[nH]nc(N)c5C#N)cc43)cc2)CC1 [AW7] |  | 0.30 kcal/ mol/ heavy atom | 69 ± 7 nM |  | 50 µM (≈ 21.3 µg/mL) | 6.3 µM (≈ 2.68 µg/mL) | Kd (M. abscessus TrmD [1]): 73 ± 30 nM; Kd (M. tuberculosis TrmD): 330 nM; MIC (M. chelonae): 100 µM (≈ 42.6 µg/mL); MIC (M. fortuitum): 100 µM (≈ 42.6 µg/mL); MIC (M. gordonae): 100 µM (≈ 42.6 µg/mL); MIC (M. terrae): 25 µM (≈ 10.6 µg/mL); MIC (M. avium): 100 µM (≈ 42.6 µg/mL); cellular toxicity (LDH release) (human macrophages): neither compound caused cellular toxicity; decrease in CFUs compared to the no drug control [3]: 95%; inhibition at 6.2 µM [4]: > 50%; inhibitory activity against axenic M. leprae (radiorespirometry) [5]: show inhibitory activity; sensitivity of M. abscessus to the compound on incremental silencing of TrmD (M. abscessus TrmD [6]): progressively more sensitive to AW7
COc1ccc(-c2cc(N)n[nH]2)cc1 [Fragment 23] | 170000 nM | 0.37 kcal/ mol/ heavy atom |  |  |  |  | 
OB(O)c1ccc2cc[nH]c2c1 [Fragment 24] | 260000 nM | 0.41 kcal/ mol/ heavy atom |  |  |  |  | 
